# In US20260158011A1 (Achieve Life Sciences, Inc., priority 2023, published 2026):
# Where two headings read alike, the source gives them in different places.
# Legend:
# [1] = target: neuronal alpha4, beta2 (α4β2) receptors (Homo sapiens, UniProt P17787+P43681); details: background studies; cited from earlier work
# [2] = test system: adults smoking 10+ cigarettes daily; details: for Serious AEs: ORCA-1, pooled cytisinicline arms (n = 203)
# From the text: Table 13 summarizes the treatment emergent adverse events (TEAEs).
# [3] = test system: adults who smoked 10 cigarettes per day; details: for Biochemically confirmed continuous smoking abstinence Weeks 3-6, % / Biochemically confirmed continuous smoking abstinence Weeks 9-12, %: primary outcome; for Biochemically confirmed continuous smoking abstinence Weeks 6-24, % / Biochemically confirmed continuous smoking abstinence Weeks 12-24, %: secondary outcome; for Relapse-free abstinence from week 6 to 24: intent-to-treat
# Procedure: The trial was conducted at 17 U.S. sites. Adults aged 18 years were eligible if they currently smoked 10 cigarettes per day, had expired air carbon monoxide (CO) ≥10 ppm, and intended to quit smoking. Individuals were excluded if they used any non-cigarette tobacco product (pipe tobacco, cigars, smokeless tobacco, hookah), electronic cigarettes, smoking cessation medication (bupropion, varenicline, nortriptyline, nicotine replacement product), or marijuana (smoked or vaped) in the 28 days before randomization or planned to use them during the study. Other exclusion criteria included uncontrolled hypertension, hepatic or renal impairment, past 3-month history of acute myocardial infarction, unstable angina, cerebrovascular incident, or hospitalization for congestive heart failure, diagnosis of schizophrenia or bipolar disorder, current psychosis, suicidal ideation or suicide risk (Columbia Suicide Severity Rating Scale), (1) moderate to severe depression symptoms (Hospital Anxiety and Depression Scale score ≥11), (2) or a positive urinary screen for illicit drugs. (Full criteria in Trial Protocol).
# At a screening visit, individuals provided written informed consent, completed a medical history, brief physical examination, electrocardiogram and laboratory tests, agreed to a quit date 5 to 7 days after study drug initiation, and recorded the number of cigarettes smoked daily for 7 days. At a second visit, participants who met inclusion and exclusion criteria were randomly assigned to study arm, received brief smoking cessation counseling, set their quit date within 5 to 7 days and started study medication the next day. A predetermined central computer-generated randomization sequence was used to assign participants (1:1:1) stratified by study site to receive placebo TID for 12 weeks (Arm A), 3 mg cytisinicline TID for 6 weeks followed by placebo TID for 6 weeks (Arm B), or 3 mg cytisinicline TID for 12 weeks (Arm C).
# Study medication was identical-appearing tablets, containing 3 mg cytisinicline or placebo taken orally TID for 12 weeks. Participants were followed for 12 additional weeks after treatment ended. All participants received 10 minutes of brief smoking cessation behavioral support provided by trained counselors at each visit from randomization through week 24.
# Assessments after randomization were conducted at in-person visits on day 2, weekly from 1 to 12 weeks, and at weeks 16, 20, and 24. Participants who discontinued study drug prematurely were encouraged to remain in the study and complete all assessment visits. Smoking status was assessed by self-report of cigarette abstinence since the last visit, measured weekly from weeks 2 through 12. Self-reported abstinence at weeks 16, 20, and 24 used the Russell criteria of not smoking more than 5 cigarettes since the last visit (3). A breath carbon monoxide (CO) level was measured at each visit. Verified abstinence required self-reported nonsmoking and a breath carbon monoxide (CO) <10 ppm. Participants not meeting these criteria or with missing data were classified as smoking.
# The study had two primary endpoints. […] Study success was defined as either primary endpoint meeting statistical criterion. The secondary outcome measures were verified continuous cigarette abstinence to week 24 (weeks 3 to 24 for Arms B vs. A; weeks 9 to 24 for Arms C vs. A). A third secondary outcome measure compared the risk of relapse to smoking between weeks 6 and 24 among participants assigned to cytisinicline who achieved abstinence by week 6; these individuals were either switched to placebo at week 6 (Arm B) or continued cytisinicline to week 12 (Arm C). Other pre-specified endpoints included comparing the difference between arms in verified 7-day point-prevalence abstinence at each visit from week 2 through week 24 and assessing for evidence of effect modification for subsets defined by baseline attributes.
# [4] = 1.5 mg downward titration (n = 51)
# [5] = 3.0 mg downward titration (n = 50)
# [6] = pooled cytisinicline arms (n = 203)
# [7] = Arm B Cytisinicline 6 weeks, N = 269
# [8] = Arm C Cytisinicline 12 weeks, N = 270
# Chain of neuronal alpha4, beta2 (α4β2) receptors (P43681 29-627 limits assumed): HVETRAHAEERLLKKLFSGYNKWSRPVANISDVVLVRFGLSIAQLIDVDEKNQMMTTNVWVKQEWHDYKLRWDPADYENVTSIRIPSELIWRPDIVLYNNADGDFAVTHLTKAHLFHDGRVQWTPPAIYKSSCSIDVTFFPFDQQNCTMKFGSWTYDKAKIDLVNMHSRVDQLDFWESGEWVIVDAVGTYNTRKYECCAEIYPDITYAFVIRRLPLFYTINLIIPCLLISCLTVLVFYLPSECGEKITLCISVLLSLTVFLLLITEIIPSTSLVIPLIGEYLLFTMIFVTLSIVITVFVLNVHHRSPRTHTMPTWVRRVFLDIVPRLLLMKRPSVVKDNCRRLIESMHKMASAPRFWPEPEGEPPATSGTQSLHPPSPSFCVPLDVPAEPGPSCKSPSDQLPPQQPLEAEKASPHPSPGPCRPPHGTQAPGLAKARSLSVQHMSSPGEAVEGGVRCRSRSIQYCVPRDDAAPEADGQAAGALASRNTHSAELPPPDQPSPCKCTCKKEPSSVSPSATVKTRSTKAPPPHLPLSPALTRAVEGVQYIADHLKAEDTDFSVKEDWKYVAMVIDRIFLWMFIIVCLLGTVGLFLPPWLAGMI
# Chain of neuronal alpha4, beta2 (α4β2) receptors (P17787 26-502): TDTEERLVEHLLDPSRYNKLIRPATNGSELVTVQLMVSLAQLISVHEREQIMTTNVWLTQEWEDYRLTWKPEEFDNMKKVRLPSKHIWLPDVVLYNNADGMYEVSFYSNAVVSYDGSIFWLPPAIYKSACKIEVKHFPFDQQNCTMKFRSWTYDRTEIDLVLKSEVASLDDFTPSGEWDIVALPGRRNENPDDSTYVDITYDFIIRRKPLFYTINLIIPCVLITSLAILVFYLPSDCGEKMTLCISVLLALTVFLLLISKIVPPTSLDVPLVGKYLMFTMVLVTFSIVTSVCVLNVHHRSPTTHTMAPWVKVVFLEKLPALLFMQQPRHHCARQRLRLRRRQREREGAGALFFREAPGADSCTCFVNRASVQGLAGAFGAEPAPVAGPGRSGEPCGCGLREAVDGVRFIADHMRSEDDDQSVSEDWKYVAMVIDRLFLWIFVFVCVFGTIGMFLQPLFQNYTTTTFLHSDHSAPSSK
structure (smiles),measurement,setting,value
"O=c1cccc2n1C[C@@H]1CNC[C@H]2C1 [cytisine, (−)-Cytisine]",Binding to α4β2 receptors,[1],bind strongly and preferentially
same,TEAE: Abnormal dreams,[2]; 1.5 mg TID (n = 52),4 (8%) n (%)
same,TEAE: At least 1 AE,[2]; 1.5 mg TID (n = 52),20 (39%) n (%)
same,TEAE: Constipation,[2]; 1.5 mg TID (n = 52),1 (2%) n (%)
same,TEAE: Fatigue,[2]; 1.5 mg TID (n = 52),3 (6%) n (%)
same,TEAE: Headache,[2]; 1.5 mg TID (n = 52),6 (12%) n (%)
same,TEAE: Insomnia,[2]; 1.5 mg TID (n = 52),4 (8%) n (%)
same,TEAE: Nausea,[2]; 1.5 mg TID (n = 52),1 (2%) n (%)
same,TEAE: URTI,[2]; 1.5 mg TID (n = 52),5 (10%) n (%)
same,TEAE: Abnormal dreams,[2]; [4],4 (8%) n (%)
same,TEAE: At least 1 AE,[2]; [4],29 (57%) n (%)
same,TEAE: Fatigue,[2]; [4],1 (2%) n (%)
same,TEAE: Headache,[2]; [4],1 (2%) n (%)
same,TEAE: Insomnia,[2]; [4],3 (6%) n (%)
same,TEAE: Nausea,[2]; [4],5 (10%) n (%)
same,TEAE: URTI,[2]; [4],3 (6%) n (%)
same,TEAE: Abnormal dreams,[2]; 3.0 mg TID (n = 50),3 (6%) n (%)
same,TEAE: At least 1 AE,[2]; 3.0 mg TID (n = 50),21 (42%) n (%)
same,TEAE: Constipation,[2]; 3.0 mg TID (n = 50),3 (6%) n (%)
same,TEAE: Fatigue,[2]; 3.0 mg TID (n = 50),1 (2%) n (%)
same,TEAE: Headache,[2]; 3.0 mg TID (n = 50),2 (4%) n (%)
same,TEAE: Insomnia,[2]; 3.0 mg TID (n = 50),3 (6%) n (%)
same,TEAE: Nausea,[2]; 3.0 mg TID (n = 50),3 (6%) n (%)
same,TEAE: URTI,[2]; 3.0 mg TID (n = 50),3 (6%) n (%)
same,TEAE: Abnormal dreams,[2]; [5],7 (14%) n (%)
same,TEAE: At least 1 AE,[2]; [5],23 (46%) n (%)
same,TEAE: Fatigue,[2]; [5],2 (4%) n (%)
same,TEAE: Headache,[2]; [5],1 (2%) n (%)
same,TEAE: Insomnia,[2]; [5],4 (8%) n (%)
same,TEAE: Nausea,[2]; [5],3 (6%) n (%)
same,TEAE: URTI,[2]; [5],2 (4%) n (%)
same,Serious AEs,[2],no serious or severe adverse events
same,Serious AEs,[2]; listed as Cytisinicline,0
same,TEAE: Abnormal dreams,[2]; [6],18 (9%) n (%)
same,TEAE: At least 1 AE,[2]; [6],93 (46%) n (%)
same,TEAE: Constipation,[2]; [6],4 (2%) n (%)
same,TEAE: Fatigue,[2]; [6],7 (3%) n (%)
same,TEAE: Headache,[2]; [6],10 (5%) n (%)
same,TEAE: Insomnia,[2]; [6],14 (7%) n (%)
same,TEAE: Nausea,[2]; [6],12 (6%) n (%)
same,TEAE: URTI,[2]; [6],13 (6%) n (%)
same,"OR for relapse-free abstinence week 6 to 24, Arm B vs Arm C",[3]; 12-week versus 6-week cytisinicline,1.31
same,"Biochemically confirmed continuous smoking abstinence Weeks 3-6, %",[3]; [7],25.3%
same,"Biochemically confirmed continuous smoking abstinence Weeks 9-12, %",[3]; [7],22.3%
same,"Biochemically confirmed continuous smoking abstinence Weeks 6-24, %",[3]; [7],8.9%
same,"Biochemically confirmed continuous smoking abstinence Weeks 12-24, %",[3]; [7],13.8%
same,"OR versus placebo, continuous abstinence weeks 3 to 24",[3]; Arm B vs. A,3.7
same,"OR versus placebo, continuous abstinence weeks 3 to 6",[3]; Arm B vs. A (6-week treatment),8.0
same,"Risk Difference, continuous smoking abstinence Weeks 6-24","[3]; Arm B vs. Arm A, Cytisinicline-6 weeks vs. placebo, 95% CI 0.03, 0.09",0.06
same,"Risk Difference, continuous smoking abstinence Weeks 12-24","[3]; Arm B vs. Arm A, Cytisinicline-6 weeks vs. placebo, 95% CI 0.04, 0.13",0.09
same,"Risk Difference, continuous smoking abstinence Weeks 9-12","[3]; Arm B vs. Arm A, Cytisinicline-6 weeks vs. placebo, 95% CI 0.10, 0.20",0.15
same,"Risk Difference, continuous smoking abstinence Weeks 3-6","[3]; Arm B vs. Arm A, Cytisinicline-6 weeks vs. placebo, 95% CI 0.16, 0.25",0.21
same,"Relative Risk, continuous smoking abstinence Weeks 6-24","[3]; Arm B vs. Arm A, Cytisinicline-6 weeks vs. placebo, 95% CI 1.56, 8.50",3.45
same,"Relative Risk, continuous smoking abstinence Weeks 12-24","[3]; Arm B vs. Arm A, Cytisinicline-6 weeks vs. placebo, 95% CI 1.59, 5.46",2.87
same,"Relative Risk, continuous smoking abstinence Weeks 9-12","[3]; Arm B vs. Arm A, Cytisinicline-6 weeks vs. placebo, 95% CI 1.98, 5.30",3.18
same,"Relative Risk, continuous smoking abstinence Weeks 3-6","[3]; Arm B vs. Arm A, Cytisinicline-6 weeks vs. placebo, 95% CI 3.26, 10.74",5.71
same,"NNT (number needed to treat), continuous smoking abstinence Weeks 3-6","[3]; Arm B vs. Arm A, Cytisinicline-6 weeks vs. placebo, 95% CI 4, 7",5
same,"NNT (number needed to treat), continuous smoking abstinence Weeks 9-12","[3]; Arm B vs. Arm A, Cytisinicline-6 weeks vs. placebo, 95% CI 4, 11",7
same,"NNT (number needed to treat), continuous smoking abstinence Weeks 12-24","[3]; Arm B vs. Arm A, Cytisinicline-6 weeks vs. placebo, 95% CI 7, 24",11
same,"NNT (number needed to treat), continuous smoking abstinence Weeks 6-24","[3]; Arm B vs. Arm A, Cytisinicline-6 weeks vs. placebo, 95% CI 10, 40",16
same,"Biochemically-confirmed continuous smoking abstinence, weeks 3 to 6",[3]; Arm B: 3 mg cytisinicline TID 6 weeks then placebo 6 weeks,25.3%
same,Continuous abstinence weeks 3 to 24,[3]; Arm B: 6-week cytisinicline treatment,8.9%
same,Relapse-free abstinence from week 6 to 24,[3]; Arm B: switched to placebo at week 6,10.4%
same,"Biochemically confirmed continuous smoking abstinence Weeks 3-6, %",[3]; [8],22.2%
same,"Biochemically confirmed continuous smoking abstinence Weeks 9-12, %",[3]; [8],32.6%
same,"Biochemically confirmed continuous smoking abstinence Weeks 6-24, %",[3]; [8],11.9%
same,"Biochemically confirmed continuous smoking abstinence Weeks 12-24, %",[3]; [8],21.1%
same,"OR versus placebo, continuous abstinence weeks 9 to 24",[3]; Arm C vs. A,5.3
same,"OR versus placebo, continuous abstinence weeks 9 to 12",[3]; Arm C vs. A (12-week treatment),6.3
same,"Risk Difference, continuous smoking abstinence Weeks 6-24","[3]; Arm C vs. Arm A, Cytisinicline-12 weeks vs. placebo, 95% CI 0.05, 0.12",0.09
same,"Risk Difference, continuous smoking abstinence Weeks 12-24","[3]; Arm C vs. Arm A, Cytisinicline-12 weeks vs. placebo, 95% CI 0.11, 0.20",0.16
same,"Risk Difference, continuous smoking abstinence Weeks 3-6","[3]; Arm C vs. Arm A, Cytisinicline-12 weeks vs. placebo, 95% CI 0.13, 0.22",0.18
same,"Risk Difference, continuous smoking abstinence Weeks 9-12","[3]; Arm C vs. Arm A, Cytisinicline-12 weeks vs. placebo, 95% CI 0.20, 0.30",0.26
same,"Relative Risk, continuous smoking abstinence Weeks 6-24","[3]; Arm C vs. Arm A, Cytisinicline-12 weeks vs. placebo, 95% CI 2.15, 11.05",4.59
same,"Relative Risk, continuous smoking abstinence Weeks 12-24","[3]; Arm C vs. Arm A, Cytisinicline-12 weeks vs. placebo, 95% CI 2.53, 8.15",4.40
same,"Relative Risk, continuous smoking abstinence Weeks 3-6","[3]; Arm C vs. Arm A, Cytisinicline-12 weeks vs. placebo, 95% CI 2.842, 9.50",5.02
same,"Relative Risk, continuous smoking abstinence Weeks 9-12","[3]; Arm C vs. Arm A, Cytisinicline-12 weeks vs. placebo, 95% CI 2.98, 7.58",4.65
same,"NNT (number needed to treat), continuous smoking abstinence Weeks 9-12","[3]; Arm C vs. Arm A, Cytisinicline-12 weeks vs. placebo, 95% CI 3, 6",4
same,"NNT (number needed to treat), continuous smoking abstinence Weeks 3-6","[3]; Arm C vs. Arm A, Cytisinicline-12 weeks vs. placebo, 95% CI 4, 8",6
same,"NNT (number needed to treat), continuous smoking abstinence Weeks 12-24","[3]; Arm C vs. Arm A, Cytisinicline-12 weeks vs. placebo, 95% CI 4, 9",6
same,"NNT (number needed to treat), continuous smoking abstinence Weeks 6-24","[3]; Arm C vs. Arm A, Cytisinicline-12 weeks vs. placebo, 95% CI 8, 20",11
same,"Biochemically-confirmed continuous smoking abstinence, weeks 9 to 12",[3]; Arm C: 3 mg cytisinicline TID 12 weeks,32.6%
same,Continuous abstinence weeks 9 to 24,[3]; Arm C: 12-week cytisinicline treatment,21.1%
same,Relapse-free abstinence from week 6 to 24,[3]; Arm C: continued cytisinicline to week 12,13.3%
same,"Odds Ratio Arm B vs. Arm A, continuous smoking abstinence Weeks 6-24","[3]; Cytisinicline 6 wk vs. placebo, 95% CI 1.5 to 10.2, P .002",3.7
same,"Odds Ratio Arm B vs. Arm A, continuous smoking abstinence Weeks 3-6","[3]; Cytisinicline 6 wk vs. placebo, 95% CI 3.9 to 16.3, P <.001",8.0
same,"Odds Ratio Arm C vs. Arm A, continuous smoking abstinence Weeks 12-24","[3]; Cytisinicline 12 wk vs. placebo, 95% CI 2.8 to 11.1, P <.001",5.3
same,"Odds Ratio Arm C vs. Arm A, continuous smoking abstinence Weeks 9-12","[3]; Cytisinicline 12 wk vs. placebo, 95% CI 3.7 to 11.6, P <.001",6.3
same,Mean total cigarette craving score (QSU-brief),"[3]; baseline to week 6, cytisinicline for 6 or 12 weeks compared to placebo",declined more rapidly
